# Experimental data from ChEMBL document CHEMBL1201862, “PubChem BioAssay data set” (2004).
# Activity calls are given as the source filed them.
# Tests used:
# Leucine aminopeptidase = molecular target: T1, Leucine aminopeptidase (Plasmodium falciparum 3D7, UniProt Q8IL11); assay: P. falciparum M17LAP inhibitors, primary screen, biochemical, fluorogenic H-Leu-NHMec substrate, 1536-well (AID 1619); assay type: functional
# T1 sequence (Q8IL11 whole entry): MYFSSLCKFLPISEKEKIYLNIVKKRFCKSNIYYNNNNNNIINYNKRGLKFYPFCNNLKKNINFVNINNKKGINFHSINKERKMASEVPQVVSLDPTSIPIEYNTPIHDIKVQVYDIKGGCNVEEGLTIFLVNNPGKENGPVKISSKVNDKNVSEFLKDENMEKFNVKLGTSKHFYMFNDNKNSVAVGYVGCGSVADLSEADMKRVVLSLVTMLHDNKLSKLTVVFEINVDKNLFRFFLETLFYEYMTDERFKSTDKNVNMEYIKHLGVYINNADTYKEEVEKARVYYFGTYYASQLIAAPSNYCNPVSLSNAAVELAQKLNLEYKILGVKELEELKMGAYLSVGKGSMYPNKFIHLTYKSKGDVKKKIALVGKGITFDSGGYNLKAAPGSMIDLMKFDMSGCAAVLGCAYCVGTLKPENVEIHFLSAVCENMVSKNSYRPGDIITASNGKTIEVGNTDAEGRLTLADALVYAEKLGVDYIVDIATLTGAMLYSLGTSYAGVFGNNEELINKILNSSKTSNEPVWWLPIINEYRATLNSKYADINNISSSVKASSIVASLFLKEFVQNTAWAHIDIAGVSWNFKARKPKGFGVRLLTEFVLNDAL
# [1] = molecular target: T2, Alkaline phosphatase, tissue-nonspecific isozyme (Homo sapiens, UniProt P05186)
# T2 sequence (P05186 whole entry): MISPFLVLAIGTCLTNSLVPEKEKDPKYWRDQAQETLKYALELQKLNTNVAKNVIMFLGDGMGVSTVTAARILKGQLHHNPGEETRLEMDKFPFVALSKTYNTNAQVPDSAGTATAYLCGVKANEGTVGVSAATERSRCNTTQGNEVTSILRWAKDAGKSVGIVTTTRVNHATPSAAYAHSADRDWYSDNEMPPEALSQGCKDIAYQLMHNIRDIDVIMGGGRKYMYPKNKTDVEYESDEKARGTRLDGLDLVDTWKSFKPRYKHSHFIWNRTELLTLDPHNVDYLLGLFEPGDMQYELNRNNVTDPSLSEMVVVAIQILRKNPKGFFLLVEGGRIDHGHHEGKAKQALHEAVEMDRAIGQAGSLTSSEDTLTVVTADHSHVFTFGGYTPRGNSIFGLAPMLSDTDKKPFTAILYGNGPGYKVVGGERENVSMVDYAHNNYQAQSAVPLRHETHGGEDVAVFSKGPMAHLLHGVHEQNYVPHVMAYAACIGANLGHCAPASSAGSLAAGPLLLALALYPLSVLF
# Bcl-2-like protein 10 = molecular target: T3, Bcl-2-like protein 10 (Homo sapiens, UniProt Q9HD36); assay: Biochemical TR3 FP assay of Bcl-B inhibitor potency, EC50 (AID 1243); assay type: functional
# T3 sequence (Q9HD36 whole entry): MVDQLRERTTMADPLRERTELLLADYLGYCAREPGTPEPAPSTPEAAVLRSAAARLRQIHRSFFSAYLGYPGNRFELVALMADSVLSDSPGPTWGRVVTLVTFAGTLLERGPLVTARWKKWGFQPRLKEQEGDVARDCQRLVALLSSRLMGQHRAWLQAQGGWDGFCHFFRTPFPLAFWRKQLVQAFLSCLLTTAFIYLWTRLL
# [2] = Counterscreen for IDE inhibitors: Luminescence-based cell-based high throughput dose response assay to identify compounds that are cytotoxic to HEK cells. [Related pubchem assays: 434962 (Primary screen (IDE inhibitors in singlicate)), 449730 (Counterscreen (Cytotoxicity in triplicate)), 435028 (Confirmation (IDE inhibitors in triplicate)) …; assay type: functional; conditions: HEK293
# Insulin-degrading enzyme = molecular target: T4, Insulin-degrading enzyme (Homo sapiens, UniProt P14735); assay: Dose Response: Fluorescence polarization-based cell-based high throughput dose response assay for inhibitors of insulin-degrading enzyme (IDE). [Related pubchem assays: 434962 (Primary screen (IDE inhibitors in singlicate)), 449730 (Counterscreen (Cytotoxicity in triplicate)), 435028 (Confirmation (IDE inhibitors in triplicate)), 434984 (Summary …; assay type: functional
# T4 sequence (P14735 whole entry): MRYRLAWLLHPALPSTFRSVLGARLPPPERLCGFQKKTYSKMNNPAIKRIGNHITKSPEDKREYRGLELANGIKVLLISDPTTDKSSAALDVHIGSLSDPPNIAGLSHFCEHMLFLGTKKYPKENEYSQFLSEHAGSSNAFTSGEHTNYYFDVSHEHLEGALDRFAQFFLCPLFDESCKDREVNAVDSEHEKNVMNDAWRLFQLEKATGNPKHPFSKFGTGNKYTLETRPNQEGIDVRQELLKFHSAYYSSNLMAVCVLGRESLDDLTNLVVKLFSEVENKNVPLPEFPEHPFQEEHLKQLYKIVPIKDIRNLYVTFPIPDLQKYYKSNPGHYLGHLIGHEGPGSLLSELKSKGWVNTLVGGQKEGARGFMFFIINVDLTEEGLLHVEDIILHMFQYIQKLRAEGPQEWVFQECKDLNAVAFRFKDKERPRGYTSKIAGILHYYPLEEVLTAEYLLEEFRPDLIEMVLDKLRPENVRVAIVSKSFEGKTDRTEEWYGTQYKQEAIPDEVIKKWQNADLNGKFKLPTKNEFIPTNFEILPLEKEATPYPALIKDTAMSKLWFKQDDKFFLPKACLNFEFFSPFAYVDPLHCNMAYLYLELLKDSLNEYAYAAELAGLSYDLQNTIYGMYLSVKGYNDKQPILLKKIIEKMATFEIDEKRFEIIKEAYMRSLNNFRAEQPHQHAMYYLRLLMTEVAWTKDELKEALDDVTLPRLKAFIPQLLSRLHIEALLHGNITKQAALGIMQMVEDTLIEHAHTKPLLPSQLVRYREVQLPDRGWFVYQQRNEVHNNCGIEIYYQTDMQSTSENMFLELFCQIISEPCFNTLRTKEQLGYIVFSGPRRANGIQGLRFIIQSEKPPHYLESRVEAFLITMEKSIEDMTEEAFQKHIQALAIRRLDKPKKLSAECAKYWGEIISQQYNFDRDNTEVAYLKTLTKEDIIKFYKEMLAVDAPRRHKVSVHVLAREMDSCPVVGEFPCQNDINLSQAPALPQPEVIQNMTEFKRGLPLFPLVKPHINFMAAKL
# [3] = enhancers of respiration in Yfh1-depleted yeast, dose response, Friedreich's ataxia, plus single-dose screen (AID 1465); assay type: functional;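 note: yeast depleted of Yfh1p frataxin homolog grown on glycerol needing respiration; WST-1 tetrazolium dye reduction as measure of cellular dehydrogenase metabolic activity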
# [4] = molecular target: Potassium voltage-gated channel subfamily KQT member 2 (Rattus norvegicus, UniProt O88943, W236L); assay: KCNQ2 channel potentiators, dose response, mechanism study for KCNQ2 potentiator project, cell-based, automated electrophysiology (AID 2603); assay type: functional
# Chain of Potassium voltage-gated channel subfamily KQT member 2 (O88943 whole entry W236L): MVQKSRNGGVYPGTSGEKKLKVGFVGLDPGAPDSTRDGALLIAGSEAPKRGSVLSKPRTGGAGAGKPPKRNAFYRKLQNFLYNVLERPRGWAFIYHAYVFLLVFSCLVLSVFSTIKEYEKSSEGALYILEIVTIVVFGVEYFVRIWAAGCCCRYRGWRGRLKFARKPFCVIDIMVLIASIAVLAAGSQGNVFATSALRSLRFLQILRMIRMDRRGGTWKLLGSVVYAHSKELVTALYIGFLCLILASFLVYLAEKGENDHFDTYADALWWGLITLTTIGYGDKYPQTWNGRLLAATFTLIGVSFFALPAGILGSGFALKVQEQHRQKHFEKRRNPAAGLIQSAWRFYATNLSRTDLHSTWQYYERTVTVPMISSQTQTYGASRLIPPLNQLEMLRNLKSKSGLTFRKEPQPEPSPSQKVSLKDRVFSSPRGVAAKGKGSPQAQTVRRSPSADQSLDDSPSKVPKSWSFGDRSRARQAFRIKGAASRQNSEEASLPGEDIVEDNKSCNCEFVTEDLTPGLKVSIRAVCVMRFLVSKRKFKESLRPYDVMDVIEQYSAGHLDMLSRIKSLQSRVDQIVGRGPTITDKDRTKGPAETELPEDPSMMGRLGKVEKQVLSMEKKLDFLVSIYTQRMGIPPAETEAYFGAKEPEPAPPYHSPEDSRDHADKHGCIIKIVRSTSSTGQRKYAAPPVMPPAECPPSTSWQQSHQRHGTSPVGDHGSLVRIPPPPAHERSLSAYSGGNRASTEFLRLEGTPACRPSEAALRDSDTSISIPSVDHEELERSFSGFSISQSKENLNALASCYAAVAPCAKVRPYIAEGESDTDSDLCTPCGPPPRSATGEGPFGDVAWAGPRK
# [5] = molecular target: T5, Adenosylmethionine-8-amino-7-oxononanoate aminotransferase (Mycobacterium tuberculosis, UniProt P9WQ81); assay: Mycobacterium tuberculosis BioA enzyme inhibitor Measured in Biochemical System Using Plate Reader - 2163-02_Inhibitor_Dose_CherryPick_Activity.; assay type: functional, Mycobacterium tuberculosis UT205
# T5 sequence (P9WQ81 whole entry): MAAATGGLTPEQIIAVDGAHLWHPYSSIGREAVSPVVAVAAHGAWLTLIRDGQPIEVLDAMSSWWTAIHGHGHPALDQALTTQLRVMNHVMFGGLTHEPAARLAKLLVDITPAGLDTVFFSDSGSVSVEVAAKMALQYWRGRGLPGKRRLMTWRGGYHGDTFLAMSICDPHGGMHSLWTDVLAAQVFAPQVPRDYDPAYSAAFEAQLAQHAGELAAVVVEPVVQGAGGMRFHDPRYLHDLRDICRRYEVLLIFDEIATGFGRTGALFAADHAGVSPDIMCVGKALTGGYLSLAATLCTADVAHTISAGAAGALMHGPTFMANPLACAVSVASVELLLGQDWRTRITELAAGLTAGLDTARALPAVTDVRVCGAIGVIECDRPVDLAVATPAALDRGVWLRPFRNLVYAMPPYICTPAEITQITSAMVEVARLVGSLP
# [6] = Luminescence-based counterscreen assay for KLF5 inhibitors: dose response cell-based high throughput screening assay to identify cytotoxic compounds using the IEC-6 intestinal epithelial cell line. [Related pubchem assays: 1700 (Primary screen.), 1834 (Confirmation screen.), 1858 (Summary AID.), 1905 (Counterscreen.)]; assay type: functional
# [7] = inhibition of ADP-Glo detection reagents, dose response, artefact control for CDK5 inhibitor project, biochemical, luminescence, cherry-picked samples, set 2 (AID 504546); assay type: functional
# [8] = cytotoxicity in HEK-293T cells, dose response, cytotoxicity control for TCR NF-kB inhibitor project, luminescence, T-cell screen hits (AID 489026); assay type: functional, cell-based;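 note: cells exposed to compound about 14 hours before the viability readout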
# Vero = assay: cells; assay type: functional; conditions: Chlorocebus sabaeus
# HEK293 = assay: cells; conditions: Homo sapiens;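 note: cells exposed to compound for 14 hours overnight before viability readout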
# Aspartyl aminopeptidase = Aspartyl aminopeptidase (Plasmodium falciparum 3D7, UniProt Q8I2J3)
# Chain of Aspartyl aminopeptidase (Q8I2J3 whole entry): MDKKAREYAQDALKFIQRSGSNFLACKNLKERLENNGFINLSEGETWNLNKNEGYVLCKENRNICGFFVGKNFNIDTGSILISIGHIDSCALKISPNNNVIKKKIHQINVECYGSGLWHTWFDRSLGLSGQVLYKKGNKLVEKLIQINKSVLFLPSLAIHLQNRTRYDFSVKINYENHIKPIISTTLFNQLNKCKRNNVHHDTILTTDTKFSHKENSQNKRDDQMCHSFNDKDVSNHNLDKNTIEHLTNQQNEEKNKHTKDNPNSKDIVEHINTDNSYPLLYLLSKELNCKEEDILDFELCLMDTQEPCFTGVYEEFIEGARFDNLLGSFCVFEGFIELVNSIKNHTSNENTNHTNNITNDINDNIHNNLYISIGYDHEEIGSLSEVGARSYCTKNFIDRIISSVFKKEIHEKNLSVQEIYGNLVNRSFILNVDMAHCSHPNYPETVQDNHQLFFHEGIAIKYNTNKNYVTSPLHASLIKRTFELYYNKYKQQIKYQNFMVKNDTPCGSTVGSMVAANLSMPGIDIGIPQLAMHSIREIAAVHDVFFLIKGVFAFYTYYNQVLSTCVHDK
# Procathepsin L = Procathepsin L (Homo sapiens, UniProt P07711)
# Chain of Procathepsin L (P07711 whole entry): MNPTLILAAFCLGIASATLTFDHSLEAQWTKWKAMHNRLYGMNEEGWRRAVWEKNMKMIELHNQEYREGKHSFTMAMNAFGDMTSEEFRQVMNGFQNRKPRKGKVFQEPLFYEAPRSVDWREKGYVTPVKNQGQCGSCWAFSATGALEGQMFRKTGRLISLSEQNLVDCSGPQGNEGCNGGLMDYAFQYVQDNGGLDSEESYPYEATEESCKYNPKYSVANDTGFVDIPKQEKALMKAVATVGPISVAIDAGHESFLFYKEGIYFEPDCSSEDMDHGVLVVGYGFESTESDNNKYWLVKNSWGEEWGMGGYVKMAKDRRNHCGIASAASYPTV
# [9] = molecular target: Scavenger receptor class B member 1 (Mus musculus, UniProt Q61009); assay: inhibitors of SR-BI mediated HDL lipid uptake, dose response, ldlA[mSR-BI] cells, fluorescence, cherry pick (AID 493194); assay type: functional, cell-based;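 note: cellular uptake of fluorescent DiI-labeled HDL measured as cell fluorescence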
# Chain of Scavenger receptor class B member 1 (Q61009 whole entry, the tested form may be a part): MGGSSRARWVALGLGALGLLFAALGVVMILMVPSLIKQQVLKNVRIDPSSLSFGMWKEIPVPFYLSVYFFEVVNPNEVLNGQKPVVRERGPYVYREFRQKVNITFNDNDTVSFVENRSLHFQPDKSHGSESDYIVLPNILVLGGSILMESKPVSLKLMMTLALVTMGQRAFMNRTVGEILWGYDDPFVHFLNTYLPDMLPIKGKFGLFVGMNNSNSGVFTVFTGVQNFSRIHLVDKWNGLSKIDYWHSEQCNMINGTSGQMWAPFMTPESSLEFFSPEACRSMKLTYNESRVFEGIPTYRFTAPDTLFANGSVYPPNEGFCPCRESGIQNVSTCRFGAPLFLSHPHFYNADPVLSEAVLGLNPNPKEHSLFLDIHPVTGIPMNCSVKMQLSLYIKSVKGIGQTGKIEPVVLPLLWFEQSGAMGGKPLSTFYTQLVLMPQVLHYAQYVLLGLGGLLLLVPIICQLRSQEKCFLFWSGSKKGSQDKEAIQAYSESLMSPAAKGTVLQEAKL
# [10] = molecular target: Disintegrin and metalloproteinase domain-containing protein 17 (Homo sapiens, UniProt P78536); assay: exosite inhibitors of ADAM17, dose response, biochemical (AID 743260)
# Chain of Disintegrin and metalloproteinase domain-containing protein 17 (P78536 whole entry, the tested form may be a part): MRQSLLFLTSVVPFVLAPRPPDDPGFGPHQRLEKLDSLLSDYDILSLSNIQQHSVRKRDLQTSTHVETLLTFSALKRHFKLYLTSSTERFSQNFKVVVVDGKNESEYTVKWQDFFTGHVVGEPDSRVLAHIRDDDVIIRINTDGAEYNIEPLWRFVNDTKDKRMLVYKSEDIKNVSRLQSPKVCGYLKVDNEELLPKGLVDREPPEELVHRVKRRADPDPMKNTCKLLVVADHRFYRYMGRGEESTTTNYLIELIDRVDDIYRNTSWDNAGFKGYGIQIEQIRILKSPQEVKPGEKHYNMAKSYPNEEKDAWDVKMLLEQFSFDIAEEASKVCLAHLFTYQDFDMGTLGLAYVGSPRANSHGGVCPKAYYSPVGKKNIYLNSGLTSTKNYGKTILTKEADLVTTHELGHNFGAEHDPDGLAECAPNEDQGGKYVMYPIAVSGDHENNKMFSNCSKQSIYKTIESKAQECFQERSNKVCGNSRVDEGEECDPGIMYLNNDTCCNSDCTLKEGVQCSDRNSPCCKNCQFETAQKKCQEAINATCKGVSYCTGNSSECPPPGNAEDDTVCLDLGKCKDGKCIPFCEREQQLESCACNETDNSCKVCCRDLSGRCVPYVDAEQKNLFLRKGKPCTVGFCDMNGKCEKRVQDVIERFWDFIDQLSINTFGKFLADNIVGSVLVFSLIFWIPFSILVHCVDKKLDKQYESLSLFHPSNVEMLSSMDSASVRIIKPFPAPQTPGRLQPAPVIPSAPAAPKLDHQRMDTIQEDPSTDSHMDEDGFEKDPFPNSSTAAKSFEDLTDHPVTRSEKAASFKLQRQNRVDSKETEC
# [11] = ADAM10 protease inhibitors, dose response, selectivity assay for ADAM17 exosite inhibitor project, biochemical, FRET peptide substrate, recombinant human ADAM10 (AID 743259);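 note: ADAM10 enzyme cleaving a FRET peptide substrate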
# Beta-galactosidase = Beta-galactosidase (Escherichia coli, UniProt Q8VNN2); assay type: functional
# NS3 = NS3 (Hepatitis C virus, UniProt A3EZJ3); assay: PubChem AID 2173; set-up: species or system Hepacivirus hominis
# Chain of NS3 (A3EZJ3 whole entry): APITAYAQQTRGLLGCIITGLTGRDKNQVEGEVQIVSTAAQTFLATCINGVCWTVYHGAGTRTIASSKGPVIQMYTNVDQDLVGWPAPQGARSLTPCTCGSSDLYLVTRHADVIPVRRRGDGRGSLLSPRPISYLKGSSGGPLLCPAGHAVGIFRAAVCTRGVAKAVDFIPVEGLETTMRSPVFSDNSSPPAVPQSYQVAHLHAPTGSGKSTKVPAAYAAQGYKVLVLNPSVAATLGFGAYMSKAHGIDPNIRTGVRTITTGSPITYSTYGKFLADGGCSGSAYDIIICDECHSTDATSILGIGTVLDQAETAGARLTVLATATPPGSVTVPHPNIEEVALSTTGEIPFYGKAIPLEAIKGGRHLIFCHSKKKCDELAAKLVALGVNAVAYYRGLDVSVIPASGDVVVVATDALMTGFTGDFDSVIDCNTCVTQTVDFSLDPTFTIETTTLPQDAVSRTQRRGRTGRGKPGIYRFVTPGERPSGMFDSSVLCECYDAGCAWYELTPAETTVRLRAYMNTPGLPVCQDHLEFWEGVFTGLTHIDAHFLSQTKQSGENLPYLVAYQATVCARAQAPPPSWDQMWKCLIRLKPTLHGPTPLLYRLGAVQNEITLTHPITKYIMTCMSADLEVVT
# [12] = molecular target: Eukaryotic translation initiation factor 4H (Homo sapiens, UniProt Q15056); assay: human eIF4H binding inhibitors, primary screen, translation initiation inhibitor project, biochemical, uHTS, fluorescence polarization (AID 2012)
# [13] = molecular target: Polyadenylate-binding protein 1 (Homo sapiens, UniProt P11940); assay: PABP poly(A) RNA binding inhibitors, primary screen, biochemical, fluorescence polarization, uHTS (AID 2014)
# [14] = molecular target: T6, Heat shock 70 kDa protein 1A (Homo sapiens, UniProt P0DMV8); assay: Hsp70 inhibitors, biochemical, TR-FRET (AID 786)
# T6 sequence (P0DMV8 whole entry): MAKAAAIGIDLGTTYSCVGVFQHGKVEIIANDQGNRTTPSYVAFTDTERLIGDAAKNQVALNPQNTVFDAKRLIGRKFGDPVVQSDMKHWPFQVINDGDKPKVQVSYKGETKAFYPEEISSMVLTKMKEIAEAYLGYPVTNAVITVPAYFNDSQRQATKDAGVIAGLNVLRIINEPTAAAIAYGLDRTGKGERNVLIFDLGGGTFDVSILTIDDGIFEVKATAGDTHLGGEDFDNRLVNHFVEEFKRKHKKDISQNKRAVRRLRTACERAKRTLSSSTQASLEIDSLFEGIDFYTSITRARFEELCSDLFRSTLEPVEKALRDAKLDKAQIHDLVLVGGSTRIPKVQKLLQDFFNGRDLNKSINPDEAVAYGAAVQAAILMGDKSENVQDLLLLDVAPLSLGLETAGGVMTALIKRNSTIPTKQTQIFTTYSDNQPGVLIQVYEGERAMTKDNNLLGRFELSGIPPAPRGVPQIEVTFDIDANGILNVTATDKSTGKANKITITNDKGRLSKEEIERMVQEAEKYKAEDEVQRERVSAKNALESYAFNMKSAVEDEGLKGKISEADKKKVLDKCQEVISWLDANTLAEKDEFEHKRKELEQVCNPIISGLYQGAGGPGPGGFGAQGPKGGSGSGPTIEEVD
# [15] = molecular target: T6, Heat shock 70 kDa protein 1A; assay: Hsp70 inhibitors, probe displacement, primary screen, biochemical, fluorescence polarization (AID 583)
# Estrogen receptor = Estrogen receptor (Homo sapiens, UniProt P03372);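 note: potency for inhibiting coactivator peptide recruitment to the receptor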
# [16] = molecular target: T7, Microphthalmia-associated transcription factor (Homo sapiens, UniProt O75030); assay: TRPM1 promoter luciferase signal decrease, dose response, MITF inhibitor project, cell-based, SK-MEL-5, cherry-picked, set 3 (AID 493073); assay type: functional
# T7 sequence (O75030 whole entry): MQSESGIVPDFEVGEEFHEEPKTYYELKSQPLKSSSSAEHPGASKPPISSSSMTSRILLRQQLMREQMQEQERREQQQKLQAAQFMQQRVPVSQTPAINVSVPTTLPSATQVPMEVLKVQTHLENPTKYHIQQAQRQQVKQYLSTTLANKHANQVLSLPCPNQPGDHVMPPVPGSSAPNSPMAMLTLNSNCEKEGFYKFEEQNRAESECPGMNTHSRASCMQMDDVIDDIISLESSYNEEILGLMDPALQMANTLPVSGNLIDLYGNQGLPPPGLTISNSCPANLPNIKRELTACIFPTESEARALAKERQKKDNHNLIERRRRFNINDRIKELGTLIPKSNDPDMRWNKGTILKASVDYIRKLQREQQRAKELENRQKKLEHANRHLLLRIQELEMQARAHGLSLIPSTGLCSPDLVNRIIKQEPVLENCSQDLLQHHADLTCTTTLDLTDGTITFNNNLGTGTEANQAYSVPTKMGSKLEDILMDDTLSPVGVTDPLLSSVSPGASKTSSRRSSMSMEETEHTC
# HeLa = assay: Cytotoxicity counterscreen assay for transcriptional activators of heat shock protein 70 (Hsp70). [Related pubchem assays: 1203, 1252 ]; assay type: functional; conditions: Homo sapiens;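 note: cells exposed to compound for 16 hours before readout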
smiles,measurement,setting,value
O=C1/C(=C/c2cccs2)NC(=S)N1C1CC1,IC50,Leucine aminopeptidase,6.44 µM (active)
same,EC50,[1],> 100 µM (not active)
Cc1cc(I)c2c(c1)C1C=CCC1C(C(=O)O)N2 (configuration not stated),EC50,Bcl-2-like protein 10,20.7 µM (active)
Cc1ccccc1N1C(=O)NC(=O)/C(=C/c2ccc(N3CCOCC3)o2)C1=O,IC50,[2],> 55.6 µM (not active)
same,IC50,Insulin-degrading enzyme,30.5 µM (not active)
same,EC50,[3],> 100 µM (active)
O=C(Nc1cccnc1)c1ccc(Cl)c(Cl)c1,EC50,[4],26.2 µM (active)
same,AC50,[5],3.94 µM (active)
Cc1ccc(C(=O)O/N=C(\N)c2ccccn2)c(C)c1,IC50,[6],13.1 µM (not active)
same,AC50,[7],17.7 µM (active)
same,IC50,[8],> 80 µM (inactive)
same,CC50,Vero,22.5 µM (active)
same,IC50,HEK293,> 20 µM (inactive)
O=C(Nc1cc(N2CCOCC2)ncn1)NC1(C(F)(F)F)Oc2ccccc2O1,IC50,Aspartyl aminopeptidase,2.7 µM (active)
same,IC50,Procathepsin L,> 59.6 µM (not active)
N=C1/C(=C/c2cccn2CCOc2ccccc2)C(=O)N=C2SC=C(c3ccccc3)N12,AC50,[9],16.9 µM (active)
same,IC50,[10],> 69.5 µM (inactive)
same,IC50,[11],> 69.5 µM (inactive)
C=CCN1CC[C@]23c4c5ccc(O)c4OC2C(=O)CC[C@@]3(O)C1C5 (some centres not stated),EC50,Beta-galactosidase,> 31.5 µM (inactive)
Nc1c(C(=O)Nc2ccccc2F)sc2nc(-c3ccco3)ccc12,IC50,NS3,> 36.3 µM (not active)
Cc1ccc(NC(=O)COC(=O)/C=C/c2ccco2)cc1S(=O)(=O)N(C)C,IC50,[12],21.9 µM (active)
same,IC50,[13],90.5 µM (active)
CCOC(=O)C1CCN(C(=O)Cc2c(F)cccc2Cl)CC1,IC50,[14],> 100 µM (not active)
same,IC50,[15],> 100 µM (not active)
O=C(N/N=C/c1cccc(Oc2ccc([N+](=O)[O-])cc2[N+](=O)[O-])c1)c1cncc(Br)c1,IC50,Estrogen receptor,27.9 µM (active)
same,AC50,[16],243 µM (active)
CCOC(=O)C1(C/C(C)=N/NC(N)=O)CC(C)OC1=O (configuration not stated),CC50,HeLa,> 99 µM (not active)
